These results are taken from the supplement of paper PMC10307832.

Test in all cases: relative viability (nuclei count vs DMSO), 5 days (fraction); higher = more cells survive
Compound in the test “Midostaurin + Trametinib”: CO[C@@H]1[C@H](N(C)C(=O)c2ccccc2)C[C@H]2O[C@]1(C)n1c3ccccc3c3c4c(c5c6ccccc6n2c5c31)C(=O)NC4 [Midostaurin] + CC(=O)Nc1cccc(-n2c(=O)n(C3CC3)c(=O)c3c(Nc4ccc(I)cc4F)n(C)c(=O)c(C)c32)c1 [Trametinib] (partner 0.02 µM)
Summed up: (§1)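 Cells from lung cancer lines were seeded into 1536-well plates and, one day later, dosed by pin tool. Treatments were either a single drug or a fixed dose of an anchor drug with five library-drug doses (not always all listed) in √10 steps. After 5 days, nuclei were stained in a one-step fixation (final 0.05% Triton X-100, 1% formaldehyde, 1 ug/ml Hoechst) and counted on 4× images, and relative viability is the treated-to-vehicle nuclei ratio, as the median of duplicate plates.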

Compound in test [1]: COc1cc(-c2nn([C@H]3CC[C@H](N4CCN(C(C)=O)CC4)CC3)c3ncnc(N)c23)ccc1NC(=O)c1cc2ccccc2n1C + CC1(C)CCC(c2ccc(Cl)cc2)=C(CN2CCN(c3ccc(C(=O)NS(=O)(=O)c4ccc(N[C@H](CCN5CCOCC5)CSc5ccccc5)c(S(=O)(=O)C(F)(F)F)c4)cc3)CC2)C1 [Navitoclax] (partner 0.5 µM)
Summed up:
as §1

Compound in test [2]: COc1cc(-c2nn([C@H]3CC[C@H](N4CCN(C(C)=O)CC4)CC3)c3ncnc(N)c23)ccc1NC(=O)c1cc2ccccc2n1C
Summed up: (§2)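 Vehicle-anchored 1536-well plates of lung cancer cell lines, held overnight at 37 °C, were pinned with five library-drug doses (not always all listed) spaced by √10. No medium change followed over the next 5 days, after which the cells were fixed, permeabilised and Hoechst-stained together and imaged at 4×. Nuclei were counted with MetaXpress, and viability is treated-well nuclei over vehicle-well nuclei, taken as a median across plates. Plates passed with control CV below 25% and at least one doubling.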

Compound in another test: CO[C@@H]1[C@H](N(C)C(=O)c2ccccc2)C[C@H]2O[C@]1(C)n1c3ccccc3c3c4c(c5c6ccccc6n2c5c31)C(=O)NC4 [Midostaurin]
Summed up:
as §2

Compound in test [3]: COc1cc(-c2nn([C@H]3CC[C@H](N4CCN(C(C)=O)CC4)CC3)c3ncnc(N)c23)ccc1NC(=O)c1cc2ccccc2n1C + NC(=O)Nc1cc(-c2cccc(F)c2)sc1C(=O)N[C@H]1CCCNC1 [AZD7762] (partner 0.2 µM)
An outline of the steps: as §1

For the cell line NCI-H520, the relative viability in the test with Midostaurin + Trametinib (first compound 0.01 µM) worked out at 0.768; with Midostaurin + Trametinib (first compound 0.03162 µM) it was 0.717; with Midostaurin + Trametinib (first compound 0.1 µM), 0.714; in the test with Midostaurin + Trametinib (first compound 0.3162 µM), 0.583; in test [1] (first compound 0.0128 µM), 1.16; in test [1] (first compound 0.04048 µM), 1.06. For the same cell line, the relative viability in test [1] (first compound 0.128 µM) is 0.995; in test [1] (first compound 1.28 µM), 0.861; in test [2] (0.0128 µM), 0.79; in test [2] (0.04048 µM) it was 0.959; in test [2] (0.128 µM) it was 0.836; in test [2] (1.28 µM), 0.778. The relative viability with Midostaurin (0.01 µM) was 0.914; with Midostaurin (0.03162 µM) it was 0.96; with Midostaurin (0.1 µM), 1.07; in the test with Midostaurin (0.3162 µM), 0.863.

As to RERF-LC-KJ, the relative viability with Midostaurin + Trametinib (first compound 0.01 µM) turned out to be 0.854; in the test with Midostaurin + Trametinib (first compound 0.03162 µM), 0.921; with Midostaurin + Trametinib (first compound 0.1 µM), 0.84; with Midostaurin + Trametinib (first compound 0.3162 µM) it was 0.806; in test [3] (first compound 0.0128 µM) it was 0.911; in test [3] (first compound 0.04048 µM) it was 0.949. The relative viability worked out at 0.981 in test [3] (first compound 0.128 µM); 0.749 in test [3] (first compound 1.28 µM); 0.829 in test [1] (first compound 0.0128 µM); 1.09 in test [1] (first compound 0.04048 µM); 0.94 in test [1] (first compound 0.128 µM); 0.837 in test [1] (first compound 1.28 µM). Besides, the relative viability in test [2] (0.0128 µM) turned out to be 1; in test [2] (0.04048 µM), 0.991; in test [2] (0.128 µM) it was 0.94; in test [2] (1.28 µM), 0.896; in the test with Midostaurin (0.01 µM) it was 1.02; with Midostaurin (0.03162 µM) it was 1.01. The relative viability in the test with Midostaurin (0.1 µM) and with Midostaurin (0.3162 µM) was 1.04 each time.

In the case of A-427, the relative viability worked out at 0.671 with Midostaurin + Trametinib (first compound 0.01 µM); 0.809 with Midostaurin + Trametinib (first compound 0.03162 µM); 0.712 with Midostaurin + Trametinib (first compound 0.1 µM); 0.637 with Midostaurin + Trametinib (first compound 0.3162 µM); 0.76 in test [3] (first compound 0.0128 µM); 0.641 in test [3] (first compound 0.04048 µM). For the same cell line, the relative viability was 0.782 in test [3] (first compound 0.128 µM); 0.727 in test [3] (first compound 1.28 µM); 1.06 in test [1] (first compound 0.0128 µM); 0.763 in test [1] (first compound 0.04048 µM); 1.04 in test [1] (first compound 0.128 µM); 0.795 in test [1] (first compound 1.28 µM). Moreover, the relative viability in test [2] (0.0128 µM) is 1.05; in test [2] (0.04048 µM), 0.837; in test [2] (0.128 µM), 0.973; in test [2] (1.28 µM), 0.863; with Midostaurin (0.01 µM) it was 0.927; in the test with Midostaurin (0.03162 µM), 0.879. Moreover, the relative viability turned out to be 1.03 with Midostaurin (0.1 µM) and 0.985 in the test with Midostaurin (0.3162 µM).

In the case of NCI-H441, the relative viability amounted to 0.418 with Midostaurin + Trametinib (first compound 0.01 µM); 0.373 with Midostaurin + Trametinib (first compound 0.03162 µM); 0.516 with Midostaurin + Trametinib (first compound 0.1 µM); 0.343 in the test with Midostaurin + Trametinib (first compound 0.3162 µM); 1.21 in test [3] (first compound 0.0128 µM); 1.01 in test [3] (first compound 0.04048 µM). The relative viability came to 1.12 in test [3] (first compound 0.128 µM); 0.717 in test [3] (first compound 1.28 µM); 0.868 in test [1] (first compound 0.0128 µM); 0.798 in test [1] (first compound 0.04048 µM); 0.91 in test [1] (first compound 0.128 µM); 0.581 in test [1] (first compound 1.28 µM). Further, the relative viability in test [2] (0.0128 µM) was 1.03; in test [2] (0.04048 µM), 0.976; in test [2] (0.128 µM) it was 0.922; in test [2] (1.28 µM) it was 0.84; with Midostaurin (0.01 µM), 0.954; with Midostaurin (0.03162 µM), 1.03. For the same cell line, the relative viability with Midostaurin (0.1 µM) was found to be 0.874; with Midostaurin (0.3162 µM), 0.902.

Regarding NCI-H1703, the relative viability in test [3] (first compound 0.0128 µM) is 0.138; in test [3] (first compound 0.04048 µM), 0.114; in test [3] (first compound 0.128 µM) it was 0.129; in test [3] (first compound 1.28 µM), 0.117; in test [1] (first compound 0.0128 µM), 1.45; in test [1] (first compound 0.04048 µM), 1.17. The relative viability in test [1] (first compound 0.128 µM) amounted to 0.736; in test [1] (first compound 1.28 µM), 0.236; in test [2] (0.0128 µM) it was 0.968; in test [2] (0.04048 µM) it was 0.581; in test [2] (0.128 µM), 0.803; in test [2] (1.28 µM), 0.324. For the same cell line, the relative viability is 0.958 in the test with Midostaurin (0.01 µM), 0.869 with Midostaurin (0.03162 µM), 0.64 with Midostaurin (0.1 µM) and 0.266 with Midostaurin (0.3162 µM).

In the case of Calu-6, the relative viability was determined as 0.881 in test [1] (first compound 0.0128 µM); 0.983 in test [1] (first compound 0.04048 µM); 0.817 in test [1] (first compound 0.128 µM); 0.722 in test [1] (first compound 1.28 µM); 1.04 in test [2] (0.0128 µM); 1.04 in test [2] (0.04048 µM). The relative viability came out at 0.899 in test [2] (0.128 µM); 0.764 in test [2] (1.28 µM); 0.946 with Midostaurin (0.01 µM); 0.984 in the test with Midostaurin (0.03162 µM); 0.985 with Midostaurin (0.1 µM); 1.01 with Midostaurin (0.3162 µM).

For the cell line SK-LU-1, the relative viability came out at 0.511 in the test with Midostaurin + Trametinib (first compound 0.01 µM); 0.517 with Midostaurin + Trametinib (first compound 0.03162 µM); 0.521 with Midostaurin + Trametinib (first compound 0.1 µM); 0.509 with Midostaurin + Trametinib (first compound 0.3162 µM); 0.95 in test [1] (first compound 0.0128 µM); 0.801 in test [1] (first compound 0.04048 µM). For the same cell line, the relative viability came out at 0.544 in test [1] (first compound 0.128 µM); 0.567 in test [1] (first compound 1.28 µM); 1.08 in test [2] (0.0128 µM); 0.994 in test [2] (0.04048 µM); 0.864 in test [2] (0.128 µM); 0.597 in test [2] (1.28 µM). The relative viability came to 0.976 in the test with Midostaurin (0.01 µM), 1.05 in the test with Midostaurin (0.03162 µM), 1.02 with Midostaurin (0.1 µM) and 0.953 with Midostaurin (0.3162 µM).

In the case of SW 1573, the relative viability turned out to be 0.547 with Midostaurin + Trametinib (first compound 0.01 µM); 0.788 with Midostaurin + Trametinib (first compound 0.03162 µM); 0.471 with Midostaurin + Trametinib (first compound 0.1 µM); 0.465 in the test with Midostaurin + Trametinib (first compound 0.3162 µM); 0.817 in test [1] (first compound 0.0128 µM); 1.02 in test [1] (first compound 0.04048 µM). For the same cell line, the relative viability in test [1] (first compound 0.128 µM) was 1.02; in test [1] (first compound 1.28 µM), 0.716; in test [2] (0.0128 µM) it was 0.926; in test [2] (0.04048 µM) it was 0.922; in test [2] (0.128 µM), 0.982; in test [2] (1.28 µM), 0.766. Moreover, the relative viability in the test with Midostaurin (0.01 µM) was determined as 0.991; with Midostaurin (0.03162 µM), 1.08; in the test with Midostaurin (0.1 µM) it was 1.05; in the test with Midostaurin (0.3162 µM), 0.969.
